These molecules were tested against T1, GABAA receptors (α5β2γ2) (Homo sapiens, UniProt P18507+P31644) (assay: Positive allosteric modulator activity: potentiation of EC20 GABA current in oocytes). Conditions: read-out: GABA α5 functional potentiation.
T1 construct: expressed in transfected cells
T1 sequence (P31644 32-462): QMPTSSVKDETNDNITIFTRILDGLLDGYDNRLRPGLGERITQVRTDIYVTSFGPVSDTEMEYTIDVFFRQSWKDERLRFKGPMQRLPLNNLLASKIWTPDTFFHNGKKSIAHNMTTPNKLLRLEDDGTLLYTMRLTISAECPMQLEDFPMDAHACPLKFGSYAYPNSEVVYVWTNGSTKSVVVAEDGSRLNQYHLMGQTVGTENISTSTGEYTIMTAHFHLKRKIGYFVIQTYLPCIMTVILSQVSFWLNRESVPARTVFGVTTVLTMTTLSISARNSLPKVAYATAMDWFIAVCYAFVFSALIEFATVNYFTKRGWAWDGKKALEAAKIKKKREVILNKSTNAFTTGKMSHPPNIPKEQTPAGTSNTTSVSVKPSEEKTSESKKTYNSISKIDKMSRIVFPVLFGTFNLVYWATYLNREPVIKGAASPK
T1 sequence (P47870 25-512 partner limits assumed): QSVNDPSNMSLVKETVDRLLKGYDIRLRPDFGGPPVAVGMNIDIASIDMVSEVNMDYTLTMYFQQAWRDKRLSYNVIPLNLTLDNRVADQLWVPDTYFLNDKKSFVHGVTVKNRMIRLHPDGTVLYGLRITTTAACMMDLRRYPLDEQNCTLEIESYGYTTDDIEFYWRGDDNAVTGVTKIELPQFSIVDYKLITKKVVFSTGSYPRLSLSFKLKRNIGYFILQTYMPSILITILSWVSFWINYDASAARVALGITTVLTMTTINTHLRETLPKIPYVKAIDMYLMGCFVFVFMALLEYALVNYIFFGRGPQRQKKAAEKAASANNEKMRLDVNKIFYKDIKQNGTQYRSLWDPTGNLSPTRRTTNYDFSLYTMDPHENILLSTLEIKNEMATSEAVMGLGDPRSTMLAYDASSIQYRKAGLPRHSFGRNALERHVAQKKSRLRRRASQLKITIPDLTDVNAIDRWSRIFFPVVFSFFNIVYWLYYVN
T1 sequence (P18507 40-475): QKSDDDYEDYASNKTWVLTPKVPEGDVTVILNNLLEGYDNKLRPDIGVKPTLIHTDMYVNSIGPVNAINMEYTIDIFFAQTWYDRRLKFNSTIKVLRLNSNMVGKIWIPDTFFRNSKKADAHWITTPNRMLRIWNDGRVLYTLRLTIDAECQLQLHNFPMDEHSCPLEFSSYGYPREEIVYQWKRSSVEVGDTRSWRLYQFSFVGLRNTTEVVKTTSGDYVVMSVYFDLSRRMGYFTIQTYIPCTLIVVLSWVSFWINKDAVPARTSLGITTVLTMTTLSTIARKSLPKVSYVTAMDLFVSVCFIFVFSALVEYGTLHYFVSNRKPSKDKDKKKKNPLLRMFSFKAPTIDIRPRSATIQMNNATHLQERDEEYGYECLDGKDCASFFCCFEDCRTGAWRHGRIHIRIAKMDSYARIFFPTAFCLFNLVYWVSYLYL
Assay type: cell-based
Procedure: On day 1, 1 ng/32 nL of GABAA α5β2γ2 cDNA was injected into one oocyte. Test starts on day 2. The cDNA injected to the oocytes was a mix of alpha, beta and gamma, their ratio is 1:1:10 (by weight) and the total weight of the mixed 3 subunits to be injected in one oocyte was 1 ng in 32 nl volume. The injected oocytes can also be tested on day 3. In such case, the cDNA amount injected to the oocytes should be reduced by 20%.
1). 8 oocytes were placed in 8 chambers of OpusXpress and superfused with Modified Barth's Saline (MBS) at 3 mL/min. Glass electrodes back-filled with 3M KCl (0.5-3 megaohms) were used.
1). Repeat the above steps 1), 2) and 3) in the control test.
2). […] Divide Itest by IGABA to obtain potentiation (%).
3). Discard all tested oocytes, new oocytes were used and the above steps 1) and 2) were repeated to test second concentration of the same compound. Each oocyte was used for only one concentration test for a single test compound. The steps were repeated for other test compounds.
`CCOC(=O)c1ncn2c1Cc1c(C)nnn1-c1cc(OC)ccc1-2` [Compound 1] was tested, and the activation at 0.1 µM was 20 to 49%.
For `CCOC(=O)c1ncn2c1Cc1c(C)nnn1-c1cc(F)ccc1-2` [Compound 2], the activation at 0.1 µM was 20 to 49%.
Work on `CCOC(=O)c1ncn2c1Cc1c(COc3ccccc3)nnn1-c1cc(OC)ccc1-2` [Compound 9] yielded an activation at 0.1 µM of 20 to 49%.
`CCOC(=O)c1ncn2c1Cc1c(COc3cccc(OC)c3)nnn1-c1cc(OC)ccc1-2` [Compound 11] showed an activation at 0.1 µM of 20 to 49%.
`CCOC(=O)c1ncn2c1Cc1c(Cc3ccc(Cl)cc3)nnn1-c1cc(F)ccc1-2` [Compound 45] gave an activation at 0.1 µM of 20 to 49%.
In the case of `CCOC(=O)c1ncn2c1Cc1c(CN3CCCC3)nnn1-c1cc(OC)ccc1-2` [Compound 48], the activation at 0.1 µM is reported as 20 to 49%.
`CCOC(=O)c1ncn2c1Cn1c(COc3ccccc3)nnc1-c1cc(OC)ccc1-2` [Compound 55] showed an activation at 0.1 µM of 20 to 49%.
In the case of `Cc1noc(-c2ncn3c2Cc2c(Cc4ccccc4)nnn2-c2cc(F)ccc2-3)n1` [Compound 109], the activation at 0.1 µM is reported as 20 to 49%.
For `Cc1noc(-c2ncn3c2Cc2c(C)nnn2-c2cc(F)ccc2-3)n1` [Compound 110], the activation at 0.1 µM was 20 to 49%.
`CCOC(=O)c1ncn2c1Cc1c(Cc3cccnc3)nnn1-c1cc(C)ccc1-2` [Compound 111] gave an activation at 0.1 µM of 20 to 49%.
`Cc1nnn2c1Cc1c(C(=O)OCC(C)(C)C)ncn1-c1ccc(F)cc1-2` [Compound 113] was tested, and the activation at 0.1 µM was greater than 50%.
`Cc1nnn2c1Cc1c(C(=O)OCC(F)(F)F)ncn1-c1ccc(F)cc1-2` [Compound 114] showed an activation at 0.1 µM greater than 50%.
`COc1ccc2c(c1)-c1nnc(COc3ccccc3)n1Cc1c(C(=O)OC(C)C)ncn1-2` [Compound 120] showed an activation at 0.1 µM of 20 to 49%.
In the case of `Cc1noc(-c2ncn3c2Cc2c(C)nnn2-c2ccccc2-3)n1` [Compound 126], the activation at 0.1 µM is reported as 20 to 49%.
In the case of `Cc1nc(-c2ncn3c2Cc2c(C)nnn2-c2ccccc2-3)no1` [Compound 127], the activation at 0.1 µM is reported as 20 to 49%.
In the case of `COCc1nnc2n1Cc1c(-c3nc(C)no3)ncn1-c1ccc(OC)cc1-2` [Compound 128], the activation at 0.1 µM is reported as 20 to 49%.
Work on `COCc1nnc2n1Cc1c(-c3nc(C(C)C)no3)ncn1-c1ccc(OC)cc1-2` [Compound 130] yielded an activation at 0.1 µM of 20 to 49%.
Molecule `Cc1nnn2c1Cc1c(-c3nc(C(C)C)no3)ncn1-c1ccccc1-2` [Compound 132] has an activation at 0.1 µM of 20 to 49%.
Work on `CCOC(=O)c1ncn2c1Cn1c(COc3ccccc3)nnc1-c1cc(F)ccc1-2` [Compound 137] yielded an activation at 0.1 µM of 20 to 49%.
Work on `Cc1nc(-c2ncn3c2Cc2c(C)nnn2-c2cc(F)ccc2-3)no1` [Compound 145] yielded an activation at 0.1 µM greater than 50%.
For `CC(C)c1nc(-c2ncn3c2Cn2c(COc4ccccc4)nnc2-c2cc(F)ccc2-3)no1` [Compound 147], the activation at 0.1 µM was 20 to 49%.
`Cc1nc(-c2ncn3c2Cn2c(COc4ccccc4)nnc2-c2cc(F)ccc2-3)no1` [Compound 148] showed an activation at 0.1 µM of 20 to 49%.
`Cc1nnn2c1Cc1c(-c3noc(C(C)C)n3)ncn1-c1ccc(F)cc1-2` [Compound 149] showed an activation at 0.1 µM greater than 50%.
Work on `Cc1nnn2c1Cc1c(C(=O)OC(C)C)ncn1-c1ccccc1-2` [Compound 153] yielded an activation at 0.1 µM of 20 to 49%.
For `CCc1nc(-c2ncn3c2Cc2c(C)nnn2-c2cc(F)ccc2-3)no1` [Compound 155], the activation at 0.1 µM was 20 to 49%.
`CCc1nc(-c2ncn3c2Cn2c(COc4ccccc4)nnc2-c2cc(F)ccc2-3)no1` [Compound 158] gave an activation at 0.1 µM of 20 to 49%.
`Cc1nnn2c1Cc1c(-c3noc(C(C)(C)C)n3)ncn1-c1ccc(F)cc1-2` [Compound 160] gave an activation at 0.1 µM greater than 50%.
Molecule `COc1ccc2c(c1)-c1nnc(COc3ccccc3)n1Cc1c(-c3noc(C)n3)ncn1-2` [Compound 162] has an activation at 0.1 µM of 20 to 49%.
With `COc1ccc2c(c1)-c1nnc(COc3ccc(F)cc3)n1Cc1c(-c3noc(C)n3)ncn1-2` [Compound 163] the activation at 0.1 µM was 20 to 49%.
`COc1ccc2c(c1)-c1nnc(COc3ccccc3)n1Cc1c(-c3noc(C(C)C)n3)ncn1-2` [Compound 171] showed an activation at 0.1 µM greater than 50%.
Molecule `COc1ccc2c(c1)-c1nnc(COc3ccc(F)cc3)n1Cc1c(-c3noc(C(C)C)n3)ncn1-2` [Compound 172] has an activation at 0.1 µM greater than 50%.
`CCOCc1nnc2n1Cc1c(-c3noc(C(C)C)n3)ncn1-c1ccc(OC)cc1-2` [Compound 173] was tested, and the activation at 0.1 µM was greater than 50%.
With `COc1ccc2c(c1)-c1nnc(COc3ccccc3F)n1Cc1c(-c3noc(C(C)C)n3)ncn1-2` [Compound 174] the activation at 0.1 µM was greater than 50%.
`COc1ccc2c(c1)-c1nnc(COc3ccccc3Cl)n1Cc1c(-c3noc(C(C)C)n3)ncn1-2` [Compound 175] gave an activation at 0.1 µM of 20 to 49%.
With `COc1ccc2c(c1)-c1nnc(COc3cccnc3)n1Cc1c(-c3noc(C(C)C)n3)ncn1-2` [Compound 176] the activation at 0.1 µM was greater than 50%.
For `COc1ccc2c(c1)-c1nnc(COc3cccc4ccccc34)n1Cc1c(-c3noc(C(C)C)n3)ncn1-2` [Compound 177], the activation at 0.1 µM was greater than 50%.
Molecule `COc1ccc2c(c1)-c1nnc(COC3CCCC3)n1Cc1c(-c3noc(C(C)C)n3)ncn1-2` [Compound 178] has an activation at 0.1 µM greater than 50%.
`COc1ccc2c(c1)-c1nnc(COc3cccc(F)c3)n1Cc1c(-c3noc(C(C)C)n3)ncn1-2` [Compound 179] showed an activation at 0.1 µM greater than 50%.
`COc1ccc2c(c1)-n1nnc(COc3ccc(F)cc3)c1Cc1c(-c3noc(C)n3)ncn1-2` [Compound 180] gave an activation at 0.1 µM of 20 to 49%.
Molecule `COc1ccc2c(c1)-n1nnc(COc3ccccc3F)c1Cc1c(-c3noc(C)n3)ncn1-2` [Compound 181] has an activation at 0.1 µM of 20 to 49%.
With `COc1ccc2c(c1)-c1nnc(COc3ccc(F)cc3)n1Cc1c(C#N)ncn1-2` [Compound 191] the activation at 0.1 µM was 20 to 49%.
`COc1ccc2c(c1)-n1nnc(Cc3ccccc3)c1Cc1c(Br)ncn1-2` [Compound 212] showed an activation at 0.1 µM of 20 to 49%.
`COc1ccc2c(c1)-n1nnc(Cc3ccc(F)cc3)c1Cc1c(Br)ncn1-2` [Compound 213] was tested, and the activation at 0.1 µM was 20 to 49%.

The molecules below were run against T2, α5β3γ2 GABAA receptors (Ltk cells) (Homo sapiens, UniProt P18507+P31644) (assay: Binding activity on GABAAR: inhibition of [3H]Ro15-1788 binding). Conditions: not given.
T2 construct: membranes
T2 sequence (P31644 32-462): as the sequence (P31644 32-462) above
T2 sequence (P28472 26-473 partner): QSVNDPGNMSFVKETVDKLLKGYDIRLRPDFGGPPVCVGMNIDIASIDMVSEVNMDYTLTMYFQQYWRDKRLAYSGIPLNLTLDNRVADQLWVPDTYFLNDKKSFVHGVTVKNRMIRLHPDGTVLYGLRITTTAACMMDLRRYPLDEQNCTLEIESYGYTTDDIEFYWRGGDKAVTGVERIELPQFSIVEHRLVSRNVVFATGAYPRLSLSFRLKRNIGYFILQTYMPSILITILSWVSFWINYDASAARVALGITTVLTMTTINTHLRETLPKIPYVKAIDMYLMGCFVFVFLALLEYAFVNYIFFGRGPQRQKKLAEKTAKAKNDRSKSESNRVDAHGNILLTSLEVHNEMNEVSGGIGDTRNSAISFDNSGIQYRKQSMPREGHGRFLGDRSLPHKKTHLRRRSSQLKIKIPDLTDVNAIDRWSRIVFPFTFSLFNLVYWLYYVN
T2 sequence (P18507 40-475): as the sequence (P18507 40-475) above
Procedure: Tissue culture and Membrane Preparation: The binding was performed on Ltk cells stably expressing GABAA receptors: α1β1γ2, α2β3γ2, α3β3γ2 and α5β3γ2 (provided by Merck Co., NJ, USA). Cells were seeded in 100 mm culture plates in DMEM/F12 medium containing 10% serum and antibiotics in 5% CO2 and allowed to grow for 1-2 days. GABAAR expression was then induced by dexamethasone as follows: 0.5 μM for 1 day for α5 containing and 2 μM for 3 days for α1, α2 and α3 containing GABAARs. After induction, cells were collected by scraping into Dulbecco's Phosphate buffered saline (DPBS, pH 7.4, Invitrogen, Carlsbad, Calif., USA) and centrifuged at 150×g for 10 min. The pellet was washed twice by re-suspension and centrifugation. The cell pellets from at least 5 different preps were combined, suspended in the binding assay buffer (50 mM KH2PO4; 1 mM EDTA; 0.2 M KCl, pH 7.4) and membranes prepared by sonication (3-5 times, 30 sec) using Branson Sonifier 150 (G. Heinmann, Germany). Protein content was determined using BCA assay (Bio-Rad Labs, Reinach, Switzerland) with Bovine Serum Albumin (Sigma Aldrich, St. Louis, Mo., USA) as the standard. Aliquots were prepared and stored at −20° C. for further use in binding assays.
Ligand Binding: Saturation binding curves were obtained by incubating membranes with increasing concentrations (0.01-8 nM) of [^3H]Ro15-1788 (Flumazepil, 75-85 Ci/mmol, PerkinElmer, MA, USA), with nonspecific binding measured in the presence of 10 μM diazepam.
All binding assays were performed for 1 h at 4° C. in assay buffer. The total assay volume was 0.5 ml containing 0.2 mg/ml protein for α5 and 0.4 mg/ml for α1, α2, and α3 containing GABAAR membranes. Incubations were terminated by filtration through GF/B filters using a 24-Cell Harvestor (Brandel, Gaithersburg, Md., USA) followed by 3 washes with ice-cold assay buffer. Filters were transferred to scintillation vials, 5 ml scintillation liquid added, vortex-mixed and kept in dark. Next day, radioactivity was obtained using a scintillation counter (Beckman Coulter, Brea, Calif., USA). All assays were performed in triplicate.
Data Analyses: Saturation and inhibition curves were obtained using GraphPad Prism software (GraphPad Software, Inc., CA, USA).
In the case of `COc1ccc2c(c1)-n1nnc(COc3ccc(F)cc3)c1Cc1c(-c3noc(C)n3)ncn1-2` [Compound 180], the Ki is reported as less than 99 nM.
`COc1ccc2c(c1)-n1nnc(COc3ccccc3F)c1Cc1c(-c3noc(C)n3)ncn1-2` [Compound 181] gave a Ki of less than 99 nM.
`COc1ccc2c(c1)-n1nnc(C)c1Cc1c(-c3nc(C(C)C)no3)ncn1-2` [Compound 277] gave a Ki of less than 99 nM.
In the case of `C#Cc1ccc2c(c1)-c1nnc(COC)n1Cc1c(C3=N[C@H](CC(C)C)CO3)ncn1-2` [Compound 280], the Ki is reported as less than 99 nM.
`COCc1nnc2n1Cc1c(C3=N[C@H](C)CO3)ncn1-c1ccc(Cl)cc1-2` [Compound 282] was tested, and the Ki was less than 99 nM.
`COCc1nnc2n1Cc1c(C#Cc3ccccc3)ncn1-c1ccc(Cl)cc1-2` [Compound 285] gave a Ki of less than 99 nM.
`C#Cc1ncn2c1Cn1c(COC(C)C)nnc1-c1cc(Cl)ccc1-2` [Compound 288] was tested, and the Ki was less than 99 nM.
Work on `COc1ccc2c(c1)-n1nncc1Cc1c(C3=N[C@@H](c4ccccc4)CO3)ncn1-2` [Compound 289] yielded a Ki of less than 99 nM.
`COc1ccc2c(c1)-n1nncc1Cc1c(C3=N[C@H](C)CO3)ncn1-2` [Compound 291] showed a Ki of less than 99 nM.
`COCc1nnc2n1Cc1c(C3=NC[C@@H](C)O3)ncn1-c1ccc(Cl)cc1-2` [Compound 294] showed a Ki of less than 99 nM.
`COCc1nnc2n1Cc1c(C3=NC[C@H](C)O3)ncn1-c1ccc(Cl)cc1-2` [Compound 295] gave a Ki of less than 99 nM.
Work on `COCc1nnc2n1Cc1c(-c3ncc(C)o3)ncn1-c1ccc(Cl)cc1-2` [Compound 296] yielded a Ki of less than 99 nM.
In the case of `C#Cc1ccc2c(c1)-c1nnc(COC)n1Cc1c(C3=N[C@@H](c4ccccc4)CO3)ncn1-2` [Compound 301], the Ki is reported as less than 99 nM.
`C#Cc1ccc2c(c1)-c1nnc(COC)n1Cc1c(-c3nc(-c4ccccc4)co3)ncn1-2` [Compound 302] showed a Ki of less than 99 nM.
For `FC(F)(F)COCc1nnc2n1Cc1c(C3=N[C@@H](c4ccccc4)CO3)ncn1-c1ccc(Cl)cc1-2` [Compound 304], the Ki was less than 99 nM.

Source: patent US11312721B2 (priority 2015, dated 2022)
